1 substance from publication PMC11254100 (Angewandte Chemie (International ed. in English), 2024) can be followed below.

The assay deals with CAHEX:6HIS (Human immunodeficiency virus type 1 group M subtype B, UniProt P12493, A146C/E177C/M317A/W316A). The settings on record: BLI, CAHEX:6HIS immobilized on HIS-affinity probes. In general terms: Biolayer interferometry detects binding as a change in optical thickness at a sensor tip.

Regarding Lenacapvir, the koff was 2.978 ± 0.015 x10^−4 s^−1 and the kon is 1.040 ± 0.007 x10^4 M^−1s^−1.
